Experimental findings from patent US11851681B2, “Cell preparation method” (KYOTO PREFECTURAL PUBLIC UNIVERSITY CORPORATION, priority 2015, dated 2023) are described below.

“Also recorded” adds a separate entry of the source. Where two headings read alike, the source gives them in different places.

The subject of experiment [1] is Human normal skin-derived fibroblasts (HDFs). The experiment can be described thus: Real-time RT-PCR of UCP1, CIDEA, KCNK3, Example 41. It counts as cell-based. Conditions: ALK5 inhibitor II or LY2157299 (8 μM), Day 1 to Day 8; day 14; FIG. 45.
Experimental: Human normal skin-derived fibroblasts (HDFs) were suspended in a general medium (DMEM added with 10% FBS). […] The adipocyte induction medium is DMEM added with 1 nM T3, 1 μM Rosiglitazone, 0.5 mM 3-isobutyl-1-methylxanthine (IBMX), 0.5 μM dexamethasone, 1 μg/mL Insulin and 10% FBS. Once every 2 days, the culture medium was exchanged with a fresh one, and culturing was performed from Day 1 to Day 8. Thereafter, from Day 9 to Day 14, the cells were cultured in an adipocyte induction medium free of ALK5 inhibitor II or LY2157299. On day 14, the culture medium was removed by suction from each well, washed with PBS(−) and total RNA was extracted from the cells by using RNA easy Mini Kit manufactured by Qiagen. cDNA was synthesized from the RNA by using Rever Tra Ace qPCR RT Master Mix. This cDNA was admixed with Real-time PCR Master Mix, primers specific to UCP-1 gene, CIDEA gene, KCNK3 gene or β actin gene and Taqman probe. qRT-PCR was performed using AB7300 Real-time PCR system. The mRNA level of UCP1 gene was quantified as a ratio to β-actin gene mRNA, and calculated with the value of fibroblast cultured in the general medium as 1.
For experiment [2], the system named is human dermal fibroblasts; HDFs. The experiment can be described thus: Oil Red O staining, fibroblast to brown adipocyte, Example 12. Particulars: compound 2 μM in addition to T3 1 nM and Rosiglitazone 1 μM, adipocyte induction medium; day 14; FIG. 12. It counts as cell-based. Here is the method:
The concentrations of the additives are as follows: • T3: 1 nM • Rosiglitazone: 1 μM • D4476: 2 μM • Pifithrin alpha [p53 inhibitor]: 5 μM • SB431542: 2 μM • ALK5 Inhibitor II: 2 μM.
Then, the cells were washed with sterile distilled water and photographed with a phase contrast microscope at ×100 magnification.

Experiment [3] deals with Human Epidermal Keratinocyte; NHEK (AD). Conditions: CnT-PR medium, 1 μM or 10 μM; day 21; FIG. 56.
Experiment [4] concerns Human normal skin-derived fibroblasts (HDFs). The experiment can be described thus: Immunostaining of UCP1, four inhibitors, Example 40. The class given is cell-based. Particulars: LY2157299 8 μM, SB431542 4 μM, D4476 4 μM, Day 1 to Day 8, day 14, FIG. 44.
Experimental: Human normal skin-derived fibroblasts (HDFs) were suspended in a general medium (DMEM added with 10% FBS). […] The adipocyte induction medium is DMEM added with 1 nM T3, 1 μM Rosiglitazone, 0.5 mM 3-isobutyl-1-methylxanthine (IBMX), 0.5 μM dexamethasone, 1 μg/mL Insulin and 10% FBS. Once every 2 days, the culture medium was exchanged with a fresh one, and culturing was performed from Day 1 to Day 8. Thereafter, from Day 9 to Day 14, the cells were cultured in an adipocyte induction medium free of ALK5 inhibitor II, LY2157299, SB431542, D4476. On day 14, the culture medium was removed by suction from each well, and washed with PBS(−). After fixing with 4% para-formaldehyde, the well was washed with PBS (−), Permanent wave Buffer (0.2% Triton-X addition PBS) was added and the well was incubated for 15 min. After washing 3 times with PBS(−), Blocking One was added, and the mixture was incubated at room temperature for 60 min. Anti-UCP-1 antibody (RD MAB6158) was added and the mixture was reacted for 2 hrs at room temperature, and washed 3 times with Wash buffer. CF488-conjugated anti-mouse Ig antibody (Biotum 20014) was added and the mixture was reacted for 2 hrs at room temperature, and washed 3 times with PBS(−). After nuclear staining with SlowFade Gold antifade reagent with DAPI manufactured by Lifetechnology, the cells were photographed with a fluorescence microscope at ×100 magnification.
The test system of experiment [5] is human dermal fibroblasts; HDFs. The experiment can be described thus: Real-time RT-PCR of AdipoQ, Example 14. It counts as cell-based. Particulars: D4476, SB431542, ALK5 Inhibitor II 2 μM, PD0325901 1 μM, in addition to T3 and Rosiglitazone; day 14; FIG. 14. On the procedure:
The concentrations of the additives are as follows: • T3: 1 nM • Rosiglitazone: 1 μM • D4476: 2 μM. • Pifithrin alpha [p53 inhibitor]: 5 μM • PD0325901: 1 μM • SB431542: 2 μM • ALK5 Inhibitor II: 2 μM.

Experiment [6] relates to human dermal fibroblasts; HDFs. The experiment can be described thus: Bodipy staining in WA medium, four inhibitors, Example 48. It counts as cell-based. Particulars: day 12, FIG. 52.
For experiment [7], the system named is human dermal fibroblasts; HDFs. Particulars: 4 μM in MDI medium; day 14; FIG. 24.
Experimental: MDI medium (3-isobutyl-1-methylxanthine/dexamethasone/insulin-containing medium) is 10% FBS DMEM added with 0.5 mM 3-isobutyl-1-methylxanthine (IBMX), 0.5 μM dexamethasone, and 1 μg/mL Insulin. The culture medium was exchanged with a fresh one every 3-4 days, and culturing was performed until day 14.
On day 14, the culture medium was removed from each well by suction, washed with PBS, and total RNA was extracted from the cell with ISOGEN II. cDNA was synthesized from the RNA by using Rever Tra Ace qPCR RT Master Mix. This cDNA was admixed with Real-time PCR Master Mix, and primers specific to AdipoQ, FABP4 or β-actin gene, and Taqman probe. qRT-PCR was performed using AB7300 Real-time PCR system. The mRNA level of AdipoQ and FABP4 gene was quantified as a ratio to β-actin gene mRNA level, and calculated with the value of fibroblast cultured in MDI medium as 1.
Experiment [8] has as its system human gingival fibroblasts; GFs. Conditions: 4 μM in calcification induction medium; day 18; FIG. 28.
Experimental: (§1) The calcification induction medium is a 10% FBS DMEM added with 50 μg/ml ascorbic acid, 10 mM β-glycerophosphate and 100 nM Dexamethasone. The culture medium was exchanged with a fresh one every 3-4 days, and culturing was performed until day 18.
On day 18, the culture medium was removed from each well by suction, washed with PBS(−), and fixed with a fixative. It was washed 3 times with sterile distilled water. The well after ALP staining was washed with sterile distilled water, and photographed with an inverted microscope at ×40 magnification.
The test system of experiment [9] is Human normal skin-derived fibroblasts (HDFs). The experiment can be described thus: Alizarin Red S and ALP staining, absorbance, TGF-β pathway inhibitor panel, Examples 31-32. It counts as cell-based. Here is the method:
On day 21, the culture medium was removed from a part of the well, washed with PBS(-), and fixed with a fixative. It was washed 3 times with sterile distilled water. […] In the experiment of Example 31, the solution after staining with the Alizarin Red S staining solution was collected in a 96 well plate and the absorbance (OD 550 nm) was measured with an absorption spectrometer.

Experiment [10] shares this test system. Conditions: FIG. 42. On the procedure: Human normal skin-derived fibroblasts (HDFs) were suspended in a general medium (DMEM added with 10% FBS). […] An adipocyte induction medium was added to group 2 at 1 mL/well. An adipocyte induction medium added with ALK5 inhibitor II at a concentration of 4 μM was added to groups 3-8 at 1 mL/well.
The adipocyte induction medium is DMEM added with 1 nM T3, 1 μM Rosiglitazone, 0.5 mM 3-isobutyl-1-methylxanthine (IBMX), 0.5 μM dexamethasone, 1 μg/mL Insulin and 10% FBS. Once every 2 days, the culture medium was exchanged with a fresh one. In groups 3-7, as described in the Figure, the cells were cultured in an adipocyte induction medium added with ALK5 inhibitor II only in the period of days 0-2, 0-4, 0-6, 0-8, 0-10, and thereafter cultured in an adipocyte induction medium free of ALK5 inhibitor II. On day 14, the culture medium was removed by suction from each well, and washed with PBS(−). After fixing with 4% para-formaldehyde, the well was washed with PBS (−), Permanent wave Buffer (0.2% Triton-X-added PBS) was added and the well was incubated for 15 min. After washing 3 times with PBS(−), Blocking One was added, and the mixture was incubated at room temperature for 60 min. Anti-UCP-1 antibody (RD MAB6158) was added and the mixture was reacted for 2 hrs at room temperature, and washed 3 times with Wash buffer. CF488-conjugated anti-mouse Ig antibody (Biotum 20014) was added and the mixture was reacted for 2 hrs at room temperature, and washed 3 times with PBS(−). After nuclear staining with SlowFade Gold antifade reagent with DAPI manufactured by Lifetechnology, the cells were photographed with a fluorescence microscope at ×100 magnification.

Experiment [11] concerns human dermal fibroblasts; HDFs. Conditions: 4 μM in calcification induction medium; day 18; FIG. 22.
Experimental: as §1
On day 18, the culture medium was removed from each well by suction, washed with PBS, and total RNA was extracted from the cell with ISOGEN II. cDNA was synthesized from the RNA by using Rever Tra Ace qPCR RT Master Mix. This cDNA was admixed with Real-time PCR Master Mix, and primers specific to Osteocalcin, Alkaline Phosphatase or β-actin gene, and Taqman probe. qRT-PCR was performed using AB7300 Real-time PCR system. The mRNA level of Osteocalcin (Oc) and Alkaline Phosphatase (ALP) gene was quantified as a ratio to β-actin gene mRNA, and calculated with the value of fibroblast cultured in a calcification induction medium as 1.

In the case of `Cc1cccc(-c2n[nH]cc2-c2ccc3ncccc3n2)n1` [ALK5 inhibitor II, 2-(3-(6-Methylpyridin-2-yl)-1H-pyrazol-4-yl)-1,5-naphthyridine], the “conversion of fibroblast to brown adipocyte, UCP1, CIDEA and KCNK3 mRNA” value in experiment [1] was “converted fibroblast to brown adipocyte expressing UCP1 gene, CIDEA gene and KCNK3 gene; also recorded: more strongly induced”. In addition, the “conversion of fibroblast to brown adipocyte, Oil Red O staining” value in [2] was “converted fibroblast to brown adipocyte”. Besides, in [3], the “conversion of epidermal keratinocyte to urothelial cell, Uroplakin 1b and Uroplakin 3b mRNA” value was “converted human epidermal keratinocyte to urothelial cell expressing Uroplakin 1b gene and Uroplakin 3b gene”. The “conversion of fibroblast to brown adipocyte, UCP1 protein” value is listed as “converted fibroblast to brown adipocyte expressing UCP1 protein; also recorded: most strongly induced” in experiment [4] (ALK5 inhibitor II 4 μM) and “converted fibroblast to brown adipocyte is highly expressing UCP1 protein” in experiment [10] (4 μM in adipocyte induction medium, day 14). The “staining with anti-UCP1 antibody” value in [4] (groups 3-6: ALK5 inhibitor II 4 μM) is listed as “many cells were stained with anti-UCP1 antibody; also recorded: the density of the cells stained with anti-UCP1 antibody was the highest”. Further, the “conversion of fibroblast to brown adipocytes, AdipoQ mRNA” value in experiment [5] was “converted fibroblast to brown adipocytes expressing mRNA of AdipoQ gene”. The “lipid droplets stained with Bodipy, inhibitor alone” value in experiment [6] (WA medium added with 16 μM compound alone) is listed as “only a few cells contained lipid droplets stained with Bodipy”. For the same compound, the “lipid droplets stained with Bodipy / conversion to white adipocyte, inhibitor and Rosiglitazone” value in [6] (WA medium added with 16 μM compound and 1 μM Rosiglitazone) is “many cells were stained; also recorded: most strongly induced conversion of fibroblast to white adipocyte”. For the same compound, the “conversion of fibroblast to white adipocyte, AdipoQ and FABP4 mRNA” value in [7] is “converted human skin-derived fibroblast to white adipocyte expressing AdipoQ gene and FABP4 gene”. Besides, the “conversion of gingival-derived fibroblast to osteoblast, ALP staining” value in experiment [8] is reported as “converted human gingival-derived fibroblast to osteoblast having high ALP activity”. Besides, in experiment [9] (calcification induction medium, compounds 1 or 4 μM, TGF-β 10 ng/ml, day 21, FIG. 35, 36, listed as ALK5 i II), the “conversion of human fibroblast to osteoblast, Alizarin Red S / ALP staining and absorbance” value is given as “can strongly convert human fibroblast to osteoblast; also recorded: can most strongly convert human fibroblast to osteoblast”. For the same compound, the “efficiency in converting fibroblast to osteoblast (summary statement)” value in experiment [9] (description, conditions not given) is listed as “highly efficient in converting fibroblast to osteoblast”. The “conversion of fibroblast to brown adipocyte, UCP1 protein, exposure 0-8 days” value in experiment [10] (4 μM for 0-8 days, thereafter medium free of ALK5 inhibitor II) is given as “can be more strongly induced”. Moreover, the “staining with anti-UCP1 antibody, groups 3-8” value in experiment [10] (4 μM in adipocyte induction medium, days 0-2 to 0-10 or throughout, day 14) was “many cells were stained with anti-UCP1 antibody”. The “staining with anti-UCP1 antibody, group 6” value in experiment [10] (4 μM only in days 0-8, day 14) is listed as “the density of the cells stained with anti-UCP1 antibody was the highest”. Besides, the “conversion of fibroblast to osteoblast, Osteocalcin and ALP mRNA” value in experiment [11] was “converted human skin-derived fibroblast to osteoblast expressing osteocalcin gene and ALP gene”.
